The nature of series [1]: 1-MCP concentration inside the jars by GC analysis after 24 hour treatment. The format is physicochemical. To be noted: 1-gal airtight jars, equivalent amount of complex, 2 mL water. How it is done:
(§1) Boron complex 1 was tested on green tomatoes. Six 3.9 L air tight glass jars were taken for investigation containing five green tomatoes each. The tomatoes in three jars were treated with 1-MCP released from the reaction between Boron complex 1 and water in a 14 mL vial with continuous stirring, which was placed inside the jars. The other jars were kept in identical condition without placing any boron complex inside. The treatment was carried out for 24 hours. The concentration level of 1-MCP was determined (9 to 13 μLL^-1) after 24 hours of reaction by GC analysis using 2-methyl-1-propene as a standard. After 24 hours treatment all the tomatoes were kept in open environment and monitored for their color changes.
(§2) For the comparative studies between DCMB (1) and DPMB (4), experiment was performed with three 1-gal airtight jars containing eight tomatoes each which were collected from the same source but different time. One jar was used as blank containing no complex and the other two jars Were treated with equivalent amount of DCMB (1) (393 mg) and DPMB (4) (376.5 mg) complex respectively arid water (2 mL), The concentration of released 1-MCP inside the jars was calculated by GC analysis after 24 hour treatment The treated and untreated tomatoes were subjected to quality analysis under identical conditions.

The test system of the next series is green tomatoes. The series can be described thus: Green tomatoes treated with 1-MCP released from Boron complex 1 and water; color and firmness quality analysis. The format is in vivo. How it is done: as §1, with “changes. Quality Analysis: Noninoculated tomatoes were treated with Boron complex 1 as described before and kept in open air for 9 days. Quality analysis (color and firmness) was performed at 22±2° C. Color was measured with a Hunter UltraScan® VIS colorimeter (Hunter Associates Lab, Reston, Va.) and firmness was evaluated with a TA-XT2i Texture Analyzer (Texture Technologies Corp., Scarsdale, N.Y.). Four measurements were taken for each tomato for color and firmness. The color of the tomatoes was measured seven times during the investigation period and firmness was determined at the end of 9th day.” for “changes.”

For the next series, the system named is tomatoes. The series can be described thus: Comparative quality analysis of tomatoes treated with DCMB (1) and DPMB (4). In kind it is in vivo. To be noted: for darkness (L*) of tomatoes during storage / redness (a*/b*) of tomatoes during storage: 7 days storage at 22±2° C.; for darkness (L*) of tomatoes during storage: FIG. 14; for redness (a*/b*) of tomatoes during storage: FIG. 15; for average firmness of tomatoes: day 7, storage at 22±2° C., FIG. 16. How it is done: as §2
Quality Analysis: Noninoculated tomatoes were treated with Boron complex 1 as described before and kept in open air for 9 days. Quality analysis (color and firmness) was performed at 22±2° C. Color was measured with a Hunter UltraScan® VIS colorimeter (Hunter Associates Lab, Reston, Va.) and firmness was evaluated with a TA-XT2i Texture Analyzer (Texture Technologies Corp., Scarsdale, N.Y.). Four measurements were taken for each tomato for color and firmness. The color of the tomatoes was measured seven times during the investigation period and firmness was determined at the end of 9th day.
Similar results were found in a*/b* value (FIG. 15). […] The firmness data of the treated tomatoes was compared to that of non-treated tomatoes at Day 7 (NT-7D, Exp 2) and also at Day 0 (NT-OD, Exp 2), which were collected from the same batch. […] However, a significant difference was observed between the non-treated tomatoes at day 7 (2.68 kg) and non-treated fruits at day 0.

Series [2] is described as follows: GC head space analysis of 1-MCP release from boron complexes mixed with water. The format is physicochemical. To be noted: for amount of 1-MCP released in first 24 hours (releasing curves): FIGS. 4 & 7; for consistency in releasing 1-MCP over time: FIGS. 4-7, compared with complex 2; for release of 1-MCP with time (MCP releasing curve): complex mixed vigorously with H2O in air-tight vial, head space vapor injected in GC. How it is done:
Investigation of releasing 1-MCP from the boron complexes of MCP (1, 2, 3,4): Without being bound by theory, due to the moisture sensitivity of the boron complexes, the nucleophilic attack of hydroxide ion (OH—) toward the boron atom triggered the breaking of the B-C bond releasing 1-MCP as a gas.
GC analysis of dicyclohexyl-(2-methylene-cyclopropyl)-borane (1): 140 mg of the complex was mixed vigorously with 0.6 mL of H2O in a 1.5 mL air-tight vial. The vapor collected (8 μl) from the head space of the solution was injected in a GC with an MXTR-1 column. The data were compared with a reference standard of 1-MCP.
GC analysis of dihexyl-(2-methylene-cyclopropyl)-borane (2): 291 mg of the complex was mixed vigorously with 1.0 mL of H2O in a 3 mL air-tight vial. The vapor collected (100 μL) from the head space of the solution was injected in a GC with an MXTR-1 column. The data were compared with a reference standard of 1-MCP.
GC analysis of tris-(2-methylene-cyclopropyl)-borane (3): 94 mg of the complex was mixed vigorously with 0.4 mL of H2O in a 1.5 mL air-tight vial. The vapor collected (8 μL) from the head space of the solution was injected in a GC with an MXTR-1 column. The data were compared with a reference standard of 1-MCP.
GC analysis of diphenyl-(2-methylene-cyclopropyl)-borane (4): 393 mg of the complex was mixed vigorously with 2.0 mL of H2O in a 3 mL air-tight vial. The vapor collected from the head space of the solution was injected in a Hewlett-Packard 5890 GC with capillary column (30 m×0.25 mm i.d.) coated with a 0.25 μm film of 5% phenyl methyl silicon and a flame ionization detector. The temperature of GC was programmed at 30° C. isothermal with an injection point temperature of 50° C. The detector was operated at 230° C. and sample was injected under split less condition. Helium was used as carrier gas with a 1.5 mL/min column flow.
However, during this analysis it was observed that some other compounds were also released. Those compounds formed due to the breakage of other B-C bonds were cyclohexane and cyclohexanol from complex 1 or hexane and hexanol from complex 2. Complex 3 also released some byproducts either by incomplete hydrolysis of the complex or Markovnikov addition of H2O.

In the case of `C=C1CC1B(C1CCCCC1)C1CCCCC1` (centres unmarked) [complex 1, dicyclohexyl-(2-methylene-cyclopropyl)-borane], the “concentration of 1-MCP” value in series [1] is 5 μLL-1. Moreover, in the series on green tomatoes (24 hours treatment, then open environment, all untreated turned red), the “tomato color at the end of nine days” value is listed as “half of the treated tomatoes were still green”. In addition, the “tomato color after 4 days” value with green tomatoes (24 hours treatment, then open environment, untreated turned yellow) is “remained green”. Besides, the “darkness (L*) of tomatoes during storage” value in the series with green tomatoes (9 days storage at 22±2° C., FIG. 10) is recorded as “did not significantly change”. Moreover, the “redness (a*/b*) of tomatoes during storage” value (shortened to “redness (a*/b*)”) with green tomatoes (9 days storage at 22±2° C., FIG. 11) is given as “increased slowly but not in significant value”. Also, the firmness of tomatoes with green tomatoes (end of 9th day, storage at 22±2° C., FIG. 12) is reported as 1.42 (±0.35) kg. In addition, the “foreign spots on the surface of the treated tomatoes” value in the series with green tomatoes (in vivo) was “No foreign spots were observed”. In the series on tomatoes, the “darkness (L*) of tomatoes during storage” value was “did not significantly change”, the “redness (a*/b*)” value is listed as “did not change significantly or increased very slowly” and the “average firmness of tomatoes” value is recorded as 4.20 kg. For the same compound, in series [2], the “amount of 1-MCP released in first 24 hours (releasing curves)” value was “near to its highest point in first 24 hours”, the “consistency in releasing 1-MCP over time” value is “more consistent in releasing 1-MCP over time” and the “release of 1-MCP with time (MCP releasing curve)” value (shortened to “release of 1-MCP with time”) is on record as “released gradually with time”. The “area ratio of released 1-MCP over cyclohexane vs. temperature” value in series [2] (GC experiment at different temperatures, FIG. 8) is reported as “increased at lower temperature”.
For the compound `C=C1CC1B(CCCCCC)CCCCCC` (centres unmarked) [complex 2, dihexyl-(2-methylene-cyclopropyl)-borane], in series [2], the “release of 1-MCP with time” value is “released gradually with time”.
For `C=C1CC1B(C1CC1=C)C1CC1=C` (centres unmarked) [complex 3, tris-(2-methylene-cyclopropyl)-borane], in series [2], the “consistency in releasing 1-MCP over time” value is given as “more consistent in releasing 1-MCP over time” and the “release of 1-MCP with time” value is recorded as “released gradually with time”.
Turning to `C=C1CC1B(c1ccccc1)c1ccccc1` (centres unmarked) [complex 4, diphenyl-(2-methylene-cyclopropyl)-borane], the “concentration of 1-MCP” value in series [1] is given as 1 μLL-1. In addition, in the series with tomatoes, the “darkness (L*) of tomatoes during storage” value is “remained in the middle”, the “redness (a*/b*)” value is on record as “slower increase than the non-treated tomatoes” and the “average firmness of tomatoes” value is 3.10 kg. Further, in series [2], the “amount of 1-MCP released in first 24 hours (releasing curves)” value was “relatively low in first 24 hours” and the “release of 1-MCP with time” value was “released gradually with time”.
